Assay results published in patent publication US10532985B2, “Heterocycle and carbocycle derivatives having TRKA inhibitory activity” (Shionogi & Co., Ltd., priority 2014, dated 2020).

molecular target: T1, human TrkA (Homo sapiens, UniProt P04629); test: Test Example 2: Human TrkA Inhibition Assay; type: biochemical; conditions: not given
T1 construct: purchased Lifetechnologies PV3144
Procedure, shortened: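 Mobility-shift kinase assay: 90 min reaction at room temperature, stopped with EDTA buffer; phosphorylated and non-phosphorylated fluorescent substrate measured, conversion ratio calculated. Inhibition % normalised between DMSO-only wells and no-TrkA wells.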

T1 sequence (P04629 33-796): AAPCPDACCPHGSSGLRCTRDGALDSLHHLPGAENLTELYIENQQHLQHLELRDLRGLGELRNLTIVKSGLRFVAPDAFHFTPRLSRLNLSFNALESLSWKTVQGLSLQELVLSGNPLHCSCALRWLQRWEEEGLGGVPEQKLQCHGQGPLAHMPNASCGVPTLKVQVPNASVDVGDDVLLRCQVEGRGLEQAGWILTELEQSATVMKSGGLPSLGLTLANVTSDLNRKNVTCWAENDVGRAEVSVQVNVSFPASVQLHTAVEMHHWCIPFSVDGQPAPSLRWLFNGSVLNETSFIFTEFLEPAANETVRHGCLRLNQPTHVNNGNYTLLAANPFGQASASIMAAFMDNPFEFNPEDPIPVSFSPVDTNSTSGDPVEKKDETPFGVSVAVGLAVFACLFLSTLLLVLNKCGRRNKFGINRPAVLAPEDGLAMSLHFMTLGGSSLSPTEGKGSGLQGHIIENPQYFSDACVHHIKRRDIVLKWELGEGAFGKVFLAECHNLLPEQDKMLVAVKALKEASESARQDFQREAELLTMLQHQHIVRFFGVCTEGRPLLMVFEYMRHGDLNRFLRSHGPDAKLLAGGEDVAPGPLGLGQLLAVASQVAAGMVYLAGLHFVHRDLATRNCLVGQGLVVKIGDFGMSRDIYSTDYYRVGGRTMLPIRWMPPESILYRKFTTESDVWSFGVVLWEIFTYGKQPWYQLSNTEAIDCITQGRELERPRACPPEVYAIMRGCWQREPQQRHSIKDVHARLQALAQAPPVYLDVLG

| SMILES | IC50 [nM] |
| --- | --- |
| Cc1c(-c2cnn(C)c2)nn(-c2ccccc2)c1NC(=O)N[C@H]1[C@H](c2ccc(F)c(F)c2)[C@@H]2CC[C@H]1N2Cc1csnn1 (racemic) [Compound I-71] | 300 |

same assay, conditions: Test Example 2; human TrkA 2.5 nmol/L, ATP 500 μmol/L, 90 min at room temperature; read-out: TrkA inhibitory activity IC50

| IC50 [nM] | SMILES |
| --- | --- |
| 1800 | COCCN1C[C@@H](NC(=C[N+](=O)[O-])Nc2c(C)c(-c3cnn(C)c3)nn2-c2ccccc2)[C@H](c2ccccc2)C1 [Compound I-146] |
| 440 | COCCN1C[C@@H](NC(=NO)Nc2c(C)c(-c3cnn(C)c3)nn2-c2ccccc2)[C@H](c2ccccc2)C1 [Compound I-129] |
| 1300 | Cc1c(-c2cnn(C)c2)nn(-c2ccccc2)c1NC(=O)N[C@@H]1CN(CC2(C)COC2)C[C@H]1c1ccc(F)c(F)c1 [Compound I-142] |
| 3300 | Cc1c(-c2cnn(C)c2)nn(-c2ccccc2)c1NC(=O)N[C@@H]1CC2(CC(=O)C2)C[C@H]1c1ccccc1 (racemic) [Compound I-157] |
| 700 | Cc1c(-c2cnn(C)c2)nn(-c2ccccc2)c1NC(=O)N[C@@H]1CN(CC(F)(F)F)C(=O)[C@H]1c1ccccc1 (racemic) [Compound I-44] |

same assay, conditions: human TrkA inhibition, Test Example 2; class symbols A/B/C; read-out: IC50_nM

| SMILES | IC50 [nM] |
| --- | --- |
| COCCN1C[C@@H](NC(=O)Nc2c(C)c(-c3cnn(C)c3)nn2-c2ccccc2)[C@H](c2cccc(-c3cccnc3)c2)C1 (racemic) [Compound I-56] | > 1000 |
| COCCN1C[C@@H](NC(=O)Nc2c(C)c(-c3cnn(C)c3)nn2-c2ccccc2)[C@H](c2ccc3c(c2)N(C(=O)OC(C)(C)C)CCO3)C1 (racemic) [Compound I-167] | > 1000 |
| COCCN1C[C@@H](NC(=O)Nc2c(C)c(-c3cnn(C)c3)nn2-c2ccccc2)[C@H](c2ccc3c(c2)OCCO3)C1 (racemic) [Compound I-128] | 100 to 1000 |
| Cc1c(-c2cnn(C)c2)nn(-c2ccccc2)c1NC(=O)N[C@@H]1CC2(CC(O)C2)C[C@H]1c1ccccc1 (mixture of isomers) [Compound I-172] | > 1000 |
| COCCN1C[C@@H](NC(=O)Nc2c(C)c(-c3cnn(C)c3)nn2-c2ccccc2)[C@H](c2cccc(C(=O)O)c2)C1 (racemic) [Compound I-82] | > 1000 |
| Cc1c(-c2cnn(C)c2)nn(-c2ccccc2)c1NC(=O)N[C@@H]1CC(C)C[C@H]1c1ccccc1 (some centres unmarked) [Compound I-36] | < 100 |
| Cc1c(-c2cnn(C)c2)nn(-c2ccccc2)c1NC(=O)NC1CCCCC1Cc1ccc(Cl)cc1 (centres unmarked) [Compound I-14] | > 1000 |
| COCCN1C[C@@H](NC(=O)Nc2c(C)c(-c3cnn(C)c3)nn2-c2ccccc2)[C@H](c2ccc3c(c2)NCCO3)C1 (racemic) [Compound I-162] | > 1000 |
| COCCN1C[C@@H](NC(=O)Nc2c(C)c(-c3cnn(C)c3)nn2-c2ccccc2)[C@H](c2cccc(C3=CCCCC3)c2)C1 (racemic) [Compound I-58] | > 1000 |
| COCCN1C[C@@H](NC(=O)Nc2c(C)c(-c3cnn(C)c3)nn2-c2ccccc2)[C@H](c2cccc(-c3cn[nH]c3)c2)C1 (racemic) [Compound I-175] | > 1000 |
| COCCN1C[C@@H](NC(=O)Nc2c(C)c(-c3cnn(C)c3)nn2-c2ccccc2)[C@H](C2CCCCC2)C1 (racemic) [Compound I-9] | 100 to 1000 |
| COCCN1C[C@@H](NC(=O)Nc2c(C)c(-c3cnn(C)c3)nn2-c2ccccc2)[C@@]2(CCc3ccccc32)C1 (racemic) [Compound I-7] | > 1000 |
| CCOC(=O)C=C1C[C@@H](NC(=O)Nc2c(C)c(-c3cnn(C)c3)nn2-c2ccccc2)[C@H](c2ccccc2)C1 [Compound I-126] | 100 to 1000 |
| COCCN1C[C@@H](NC(=O)Nc2c(C)c(-c3cnn(C)c3)nn2-c2ccccc2)[C@H](c2cccc3c2OCO3)C1 (racemic) [Compound I-75] | 100 to 1000 |
| COCCN1C[C@@H](NC(=O)Nc2c(C)c(-c3cnn(C)c3)nn2-c2ccccc2)[C@H](c2cccc(-c3ccccc3C#N)c2)C1 (racemic) [Compound I-55] | 100 to 1000 |

Now from value to molecule:

| IC50 [nM] | SMILES |
| --- | --- |
| 100 to 1000 | Cc1c(-c2cnn(C)c2)nn(-c2ccccc2)c1NC(=O)N[C@@H]1CN(C2COC2)C[C@H]1c1ccc(F)c(F)c1 [Compound I-37] |
| 100 to 1000 | COCOCCN1C[C@@H](NC(=O)Nc2c(C)c(-c3cnn(C)c3)nn2-c2ccccc2)[C@H](c2ccc(F)c(F)c2)C1 [Compound I-80] |
| > 1000 | Cc1c(-c2cnn(C)c2)nn(-c2ccccc2)c1NC(=O)N[C@@H]1CN(CCNC(=O)C(F)(F)F)C[C@H]1c1ccc(F)c(F)c1 [Compound I-72] |
| > 1000 | CCOC1CC(N2C[C@@H](NC(=O)Nc3c(C)c(-c4cnn(C)c4)nn3-c3ccccc3)[C@H](c3ccc(F)c(F)c3)C2)C1 (some centres unmarked) [Compound I-160] |
| 100 to 1000 | COCC(CNC(C)=O)N1C[C@@H](NC(=O)Nc2c(C)c(-c3cnn(C)c3)nn2-c2ccccc2)[C@H](c2ccc(F)c(F)c2)C1 (some centres unmarked) [Compound I-112] |
| < 100 | COCCC1C[C@@H](NC(=O)Nc2c(C)c(-c3cnn(C)c3)nn2-c2ccccc2)[C@H](c2ccccc2)C1 (some centres unmarked) [Compound I-88] |
| > 1000 | Cc1c(-c2cnn(C)c2)nn(-c2ccccc2)c1NC(=O)N[C@@H]1CN(S(C)(=O)=O)C[C@H]1c1ccc(F)c(F)c1 [Compound I-45] |
| > 1000 | Cc1c(-c2cnn(C)c2)nn(-c2ccccc2)c1NC(=O)N[C@@H]1C[C@@H](C)N(C(=O)OC(C)(C)C)[C@H]1c1ccc(F)c(F)c1 (racemic) [Compound I-76] |
| 100 to 1000 | C=C1C[C@@H](NC(=O)Nc2c(C)c(-c3cnn(C)c3)nn2-c2ccccc2)[C@H](c2ccc(F)c(F)c2)C1 (racemic) [Compound I-135] |
| > 1000 | COCC(CNC(=N)N)N1C[C@@H](NC(=O)Nc2c(C)c(-c3cnn(C)c3)nn2-c2ccccc2)[C@H](c2ccc(F)c(F)c2)C1 (some centres unmarked) [Compound I-145] |
| > 1000 | CC(=O)NCCN1C[C@@H](NC(=O)Nc2c(C)c(-c3cnn(C)c3)nn2-c2ccccc2)[C@H](c2ccc(F)c(F)c2)C1 [Compound I-40] |
| < 100 | COCC(CNC(N)=O)N1C[C@@H](NC(=O)Nc2c(C)c(-c3cnn(C)c3)nn2-c2ccccc2)[C@H](c2ccc(F)c(F)c2)C1 (some centres unmarked) [Compound I-111] |
| < 100 | COCC(CNO)N1C[C@@H](NC(=O)Nc2c(C)c(-c3cnn(C)c3)nn2-c2ccccc2)[C@H](c2ccc(F)c(F)c2)C1 (some centres unmarked) [Compound I-92] |
| > 1000 | Cc1c(-c2cnn(C)c2)nn(-c2ccccc2)c1NC(=O)N[C@@H]1C[C@@H](C)N(C)[C@H]1c1ccc(F)c(F)c1 (racemic) [I 78] |
| > 1000 | Cc1c(-c2cnn(C)c2)nn(-c2ccccc2)c1NC(=O)N[C@@H]1CN(CCc2ccccc2)C[C@H]1c1ccc(F)c(F)c1 [Compound I-62] |
| < 100 | COCCC1C[C@@H](NC(=O)Nc2c(C)c(-c3cnn(C)c3)nn2-c2ccccc2)[C@H](c2ccccc2)C1 (some centres unmarked) [Compound I-85] |
| > 1000 | COC1CCCCC1N1C[C@@H](NC(=O)Nc2c(C)c(-c3cnn(C)c3)nn2-c2ccccc2)[C@H](c2ccc(F)c(F)c2)C1 (some centres unmarked) [Compound I-176] |

molecular target: T1, human TrkA; test: Test Example 2-2: Human TrkA Inhibition Assay; type: biochemical; conditions: class symbols, read-out: IC50_nM
Method: Seven point five μL per well of human TrkA (PV3144, Lifetechnologies, final concentration: 1 nmol/L) suspended in the assay buffer (100 mmol/L 4-(2-hydroxyethyl)-1-piperazineethanesulfonic acid (HEPES), 10 mmol/L magnesium chloride, 0.003 vol % Brij-35, 0.004 vol % Tween20 and 1 mmol/L dithiothreitol (DTT)) was applied in a 384 well plate and the plate was pre-incubated for 15 min at room temperature with 0.4 μL of each compound (final concentration: […]) dissolved in DMSO. Then, fluorescent substrate (FL-peptide 27, 760424, PerkinElmer, final concentration: 1.5 μmol/L) and ATP (final concentration […]) dissolved in the assay buffer was added in each well. After the incubation of 120 min at 37° C., fifteen μL of termination buffer (100 mmol/L HEPES, 40 mmol/L ethylenediaminetetraacetic acid (EDTA), 10 mmol/L magnesium chloride, 0.003 vol % Brij-35, 0.004 vol % Tween20, 1 mmol/L DTT and 0.16 vol % Coating Reagent 3) was added in each well to stop the enzyme reaction. Fluorescent intensities (FI) of phosphorylated and non-phosphorylated fluorescent substrates were measured by LabChip EZReader II (Caliper LifeSciences, Inc.), and conversion ratio (CR) was calculated by the following formula-1. The CR in the well applied with DMSO alone was used as a negative control and the CR in the well without applying TrkA was used as a positive control. The inhibitory effect of each compound on TrkA phosphorylation was calculated by the following formula-2. CR (%)=(FI of phosphorylated substrate/(FI of phosphorylated substrate+FI of non-phosphorylated substrate))×100 (Formula-1) Phosphorylation inhibition (%)=(1−(CR with compound treatment−CR of positive control)/(CR of negative control−CR of positive control))×100 (Formula-2) Inhibitory effect on TrkA phosphorylation (%)=(1−(CR in compound treated well−CR in positive control)/(CR in negative control−CR in positive control))×100.
The 50/o inhibitory concentration (IC50) was determined by the logistic regression using the inhibition data in 10 points at a range of 2 μmol/L to 0.1 nmol/L or 200 μmol/L to 10 nmol/L).

| IC50 [nM] | SMILES |
| --- | --- |
| 100 to 1000 | COCCN1C[C@@H](NC(=O)Nc2c(C)c(-c3cnn(C)c3)nn2-c2ccccc2)[C@H](c2ccc3c(c2)COC3)C1 (racemic) [Compound I-274] |

same assay, conditions: human TrkA 1 nmol/L, 120 min at 37° C., read-out: TrkA inhibition IC50

| IC50 [nM] | SMILES |
| --- | --- |
| 47 | COCCC1C[C@@H](NC(=O)Nc2c3c(nn2-c2ccccc2)CCC3)[C@H](c2ccccc2)C1 (some centres unmarked) [Compound I-184] |
| 1500 | CC(=O)CN1C[C@@H](NC(=O)Nc2c(C)c(-c3cnn(C)c3)nn2-c2ccccc2)[C@H](c2ccc(F)c(F)c2)C1 [Compound I-185] |

same assay, conditions: human TrkA inhibition, class symbols A/B/C, read-out: IC50_nM

| IC50 [nM] | SMILES |
| --- | --- |
| < 100 | COCCC1C[C@@H](NC(=O)Nc2c(C)c(-c3cnn(C)c3)nn2-c2ccccc2)[C@H](c2ccc(F)c(F)c2)C1 (some centres unmarked) [Compound I-187] |
| < 100 | COCCC1C[C@@H](NC(=O)Nc2c(C)c(-c3ccc(C(=O)OC(C)(C)C)cc3)nn2-c2ccccc2)[C@H](c2ccccc2)C1 (some centres unmarked) [Compound I-206] |
| > 1000 | COCCC1C[C@@H](NC(=O)Nc2c(C)c(-c3cnn(C)c3)nn2-c2ccccc2)[C@H](c2ccc(F)c(F)c2)N1CC(=O)OC (some centres unmarked) [Compound I-198] |
| 100 to 1000 | COCC(O)[C@H]1C[C@@H](NC(=O)Nc2c(C)c(-c3cnn(C)c3)nn2-c2ccccc2)[C@H](c2ccc(F)c(F)c2)N1 (some centres unmarked) [Compound I-215] |
| < 100 | Cc1ccc(CN2C[C@@H](NC(=O)Nc3c(C)c(-c4cnn(C)c4)nn3-c3ccccc3)[C@H](c3ccc(F)c(F)c3)C2)o1 [Compound I-193] |
| 100 to 1000 | Cc1c(-c2cnn(C)c2)nn(-c2ccccc2)c1NC(=O)N[C@@H]1CN(Cc2ccccn2)C[C@H]1c1ccc(F)c(F)c1 [Compound I-240] |
